# Results from patent US10662156B2, “Guanidine derivative and medical use thereof” (Toray Industries, Inc., priority 2016, dated 2020).
# System: imiquimod-induced psoriasis mouse models
# Assay: Suppressive effect on auricular hypertrophy in imiquimod-induced psoriasis mouse model
# Type: in vivo, BALB/c male mice
# Settings: for change in the thickness of the auricle (increase): post-induction days 4 to 7, post-induction day 8 vs before induction, vehicle group 198 μm; for change in the thickness of the auricle compared to the vehicle administration group (in words): P<0.05
# Method: The guanidine derivative (I) or the pharmacologically acceptable salt thereof was evaluated for its exertion of a therapeutic effect on psoriasis, one type of autoimmune disease, in an in vivo experimental system using imiquimod-induced psoriasis mouse models in accordance with the method described in the literature (The Journal of Dermatological Science, 2014, Vol. 76, No. 2, p. 96-103). Specifically, the evaluation was conducted by verifying the suppressive effect of the compound on auricular hypertrophy by using, as an index, the thickness of the auricle increased with the progression of symptoms in imiquimod-induced psoriasis models.
# Seven-week-old BALB/c male mice (Charles River Laboratories Japan, Inc.) were preliminarily bred and then used at the age of 8 weeks. To induce psoriasis-like symptoms, 5 mg/ear of Beselna Cream 5% was applied (imiquimod dose: 0.25 mg/body/day) to both the ears of each mouse once a day for 8 days from the date of initial administration of imiquimod (hereinafter, referred to as post-induction day 0) to post-induction day 7. A dosing vehicle was prepared by adding Tween 20 to a 0.5% (w/v) aqueous methylcellulose solution to attain a final concentration of 0.025% (v/v). A test compound was suspended in the dosing vehicle to prepare a drug solution. The drug solution was orally administered (dosing volume: 10 mL/kg) twice a day (a.m. and p.m.) for 4 days from post-induction days 4 to 7. The test compound used was the compound of Example 2, and groups given the compound of Example 2 were designated as Example 2 compound administration groups. A group given only the dosing vehicle in the same way as above was established as a vehicle administration group.
# The thickness of the auricle before imiquimod administration (before induction) at the date of induction and the thickness of the auricle at post-induction day 8 were measured using a digital micrometer (Mitsutoyo Corp.), and the change therebetween (the thickness of the auricle at post-induction day 8—the thickness of the auricle before induction) was used as an index for drug efficacy evaluation. Statistical analysis was carried out using statistical analysis software EXSAS (ver. 7.6). As a result of studying homoscedasticity among the groups by the Bartlett's test, the variance was homogeneous. Therefore, the parametric Dunnett test (two-tailed) was carried out. As for the drug dependence of the drug efficacy of the compound of Example 2 on auricular hypertrophy, as a result of studying homoscedasticity between the vehicle group and each compound administration group by the Bartlett's test, the variance was homogeneous. Therefore, the Williams test (two-tailed) was carried out. P<0.05 was confirmed as significant difference.
# The ordinate of the drawing depicts the change in the thickness of the auricle (μm), and the abscissa depicts each administration group. The term “Compound of Example 2” depicts the Example 2 compound administration groups.
compound,measurement,setting,value
"Cl.N/C(=N\S(=O)(=O)c1ccccc1)NCc1cnc(-c2ccc(Cl)cc2)c(-c2ccc(Cl)cc2)c1 [Compound of Example 2, N-(amino(((5,6-bis(4-chlorophenyl)pyridin-3-yl)methyl)amino)methylene)benzenesulfonamide Hydrochloride]",change in the thickness of the auricle (increase),7.5 mg/kg orally twice a day,179 μm
same,change in the thickness of the auricle (increase),15 mg/kg orally twice a day,131 μm
same,change in the thickness of the auricle compared to the vehicle administration group (in words),15 mg/kg orally twice a day,significantly decreased
same,change in the thickness of the auricle (increase),30 mg/kg orally twice a day,118 μm
same,change in the thickness of the auricle compared to the vehicle administration group (in words),30 mg/kg orally twice a day,significantly decreased
